For the assay, the target named is Tyrosine-protein kinase Fyn (Homo sapiens) (UniProt P06241). In words: inhibitors of human FYN tyrosine kinase activity – biochemical, Z'-LYTE, FRET readout, direct format, dose response (AID 1671282). The note with it: Z'-LYTE FRET kinase assay, recombinant FYN.

The structures appear in SMILES notation. pIC50: −log10 of the molar value.

The results in this text go back to PubChem BioAssay AID1671282.

Sequence of Tyrosine-protein kinase Fyn (Homo sapiens) (P06241 whole entry, looked up): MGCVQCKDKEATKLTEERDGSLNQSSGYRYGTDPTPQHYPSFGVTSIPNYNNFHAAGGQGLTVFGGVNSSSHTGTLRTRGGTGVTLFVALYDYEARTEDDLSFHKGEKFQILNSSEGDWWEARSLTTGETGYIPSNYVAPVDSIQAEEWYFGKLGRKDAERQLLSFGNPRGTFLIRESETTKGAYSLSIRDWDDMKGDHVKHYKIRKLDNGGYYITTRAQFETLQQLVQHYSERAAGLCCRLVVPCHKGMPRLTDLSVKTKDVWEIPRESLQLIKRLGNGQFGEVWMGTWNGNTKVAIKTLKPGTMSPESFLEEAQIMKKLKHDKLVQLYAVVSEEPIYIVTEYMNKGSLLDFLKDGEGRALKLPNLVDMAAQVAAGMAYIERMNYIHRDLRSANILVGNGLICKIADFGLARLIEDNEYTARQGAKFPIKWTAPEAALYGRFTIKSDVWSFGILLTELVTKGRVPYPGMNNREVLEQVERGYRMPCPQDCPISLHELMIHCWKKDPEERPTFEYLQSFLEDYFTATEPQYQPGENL

Regarding `COc1cc2ncnc(Nc3cccc(Cl)c3)c2cc1OC`, the pIC50 (commonly the IC50 on a negative log10 scale, so that one unit is a factor of ten) is 5.06.
